Test results published in patent US12496298B2, “Natural killer cells” (Imperial College Innovations Limited, priority 2017, dated 2025).
“Also recorded” adds a separate entry of the source.

Assays:
HPCs = assay: Live cells / toxicity in mouse HPC culture under NK cell-producing conditions; type: cell-based
Procedure: FIG. […] At Day 9, percentage of NK cells was quantified using flow cytometry. (A) Graph showing relative mature mouse NK cell (NK1.1+ CD3−) production when 5 and 10 μM SR8278 were added on different days compared to the ‘No drug’ control. (B) Representative flow cytometry results with percentage of NK cells shown. Addition of 5 μM SR8278 is shown on the top, whereas addition of 10 μM SR8278 is shown on the bottom. […] Results were averaged from two experiments with four repeats each and the error bars represent the mean+SD. Asterisks indicate significant differences from the two annotated results (* is P≤0.01, *** is P≤0.0001 and **** is P≤0.00001) based on Mann-Whitney test.
The HPCs were plated and cultured in 24-well plates at a concentration of 5×10^5 HPCs/well in 1 ml of complete cytokine medium (Dulbecco's modified eagle medium (DMEM) (Sigma Aldrich), 10% FCS, 50 μM β-Mercaptoethanol, 10 ng/ml Flt3-ligand (FIt3L) (R&D Systems), 10 ng/ml IL-7 (R&D Systems), 100 ng/ml stem cell factor (SCF) (R&D Systems) and 1% P/S) for 2 days at 37° C., 5% CO2. […]
(§1) Cells to be analysed by flow cytometry were passed through 40 μm cell strainers to remove clumps and washed with PBS buffer, centrifuged at 800 g for 2 minutes and resuspended in 100 μl fluorescent activated cell sorting (FACS) buffer (PBS plus 1% BSA) with appropriate fluorochrome conjugated antibodies at a dilution of 1 in 300. […]

[1] = system: HPCs isolated from wild type, E4bp4 knockout and heterozygous mice; assay: NK cell production from HPCs isolated from WT, E4bp4 Het and E4bp4 KO mice; type: cell-based, mouse
Procedure: FIG. 7: HPCs isolated from either wild type (WT), E4bp4 knockout (KO) or heterozygous (Het) mice were cultured with the addition of 5 or 10 μM SR8278. At Day 9, percentage of NK cells was quantified using flow cytometry. Graph showing relative mature mouse NK cell (NK1.1^+ CD3^−) production compared to the ‘No drug’ control in experiments with (A) WT, (B) Het and (C) E4bp4 KO mice. (D) Representative flow cytometry results with percentage of NK cells shown for the addition of 10 μM SR8278. Results were averaged from two experiments with four repeats each and the error bars represent the mean+SD. Asterisks indicate significant differences from the two annotated results (* is P≤0.01 and ** is P≤0.001) based on Mann-Whitney test.
Following the experiment with GSK4112, it was predicted that SR8278 acts through the pathway involving REV-ERB and E4bp4. […] Cell cultures were performed as previously (FIG. 3), where SR8278 was added on Day 2 of the culture and NK cell production was measured by flow cytometry. […]
as §1

CCOC(=O)C1Cc2ccccc2CN1C(=O)c1ccc(SC)s1 (stereo not shown) [SR8278, 1,2,3,4-Tetrahydro-2-[[5-(methylthio)-2-thienyl]carbonyl]-3-isoquinolinecarboxylic acid ethyl ester]
toxicity to cells in culture (HPCs; 20 μM): toxic and killed most of the cells
numbers of live cells compared to 'No drug' control (HPCs; added at Days 0 and 1, 5 and 10 μM): remarkably low
percentage of NK cells produced ([1]; HPCs from E4bp4 KO mice, regardless of concentration): absent of NK cells; also recorded: no effect
percentage of NK cells produced compared to 'No drug' control ([1]; HPCs from WT mice, 5 μM and 10 μM added Day 2): largest significant increase
